Experimental data reported in patent US10071103B2, “Treatments for resistant acne” (VYOME BIOSCIENCES PVT. LTD., priority 2014, dated 2018).
Converted amounts (≈) assume the structure as drawn.

What was measured:
IL-6 = test: P. acnes-induced IL-6 release in THP-1 cells (ELISA); assay type: cell-based
Description: (§1) Method: Preparation of Stimulant for Inflammation: P. acnes culture suspension was prepared in PBS and the cell number in the suspension was adjusted to approximately 5×10^8 CFU/ml by measuring the cell density using a Densimat. The bacterial suspension was then heat killed at 80° C. for 30 min and stored at −80° C. until further use.
(§2) Cells were seeded in a 96-well format (2×10^5 THP-1 cells per well) in media containing 10% FBS. The cells were stimulated to induce inflammatory cytokines using 3 McFarland equivalent heat-killed P. acnes. Cells in control wells were treated with PBS. One hour after induction with P. acnes, test agents were added to the induced cells at appropriate concentrations to be tested (compound 91 at 25 μg/ml). The plates were incubated at 37° C. for 24 hours. After 24 h, the plates were centrifuged to pellet the cells and the supernatants were collected. The cell culture supernatants thus obtained were analyzed for levels of cytokines (IL-1α, IL-1β, IL-6 and IL-8) by ELISA using R&D Systems kits for individual cytokines following the manufacturer's instructions.
(§3) Preparation of stimulant for inflammation: P. acnes culture suspension was prepared in PBS and the cell number in the suspension was adjusted to approximately 5×10^8 CFU/ml by measuring the cell density using a Densimat. The bacterial suspension was then heat killed at 80° C. for 30 min and stored at −80° C. until further use.
(§4) Cells were seeded in a 96-well format (2×10^5 THP-1 cells per well) in media containing 10% FBS. The cells were stimulated to induce inflammatory cytokines using 3 McFarland equivalent heat-killed P. acnes. Cells in control wells were treated with PBS. One hour after induction with P. acnes, test agents were added to the induced cells at appropriate concentrations (Besifloxacin at 10 and 30 μg/ml; Adapalene at 0.04 and 0.4 μg/ml). The plates were incubated at 37° C. for 24 hours. After 24 h, the plates were centrifuged to pellet the cells and the supernatants were collected. The cell culture supernatants thus obtained were analyzed for cytokine levels (IL-6 and IL-8) by ELISA using R&D Systems kits for individual cytokines following the manufacturer's instructions.

IL-8 = test: P. acnes-induced IL-8 release in THP-1 cells (ELISA); assay type: cell-based; details: THP-1 cells
Description: as §1, §2, §3, §4

IL-1β = test: P. acnes-induced IL-1β release in THP-1 cells (ELISA); assay type: cell-based; details: 25 μg/ml, 100% = P. acnes induced cells
Description: as §1, §2

IL-1α = test: P. acnes-induced IL-1α release in THP-1 cells (ELISA); assay type: cell-based; details: 25 μg/ml, 100% = P. acnes induced cells
Description: as §1, §2

E. coli DNA gyrase = target: T1, E. coli DNA gyrase (Escherichia coli, UniProt P0AES4+P0AES6); test: DNA gyrase super-coiling activity assay (Topogen kit, relaxed pHOT1 plasmid); assay type: biochemical; details: 1 μM and 2.5 μM
T1 construct: purchased Topogen Inc
T1 sequence (P0AES4 whole entry, one chain of several): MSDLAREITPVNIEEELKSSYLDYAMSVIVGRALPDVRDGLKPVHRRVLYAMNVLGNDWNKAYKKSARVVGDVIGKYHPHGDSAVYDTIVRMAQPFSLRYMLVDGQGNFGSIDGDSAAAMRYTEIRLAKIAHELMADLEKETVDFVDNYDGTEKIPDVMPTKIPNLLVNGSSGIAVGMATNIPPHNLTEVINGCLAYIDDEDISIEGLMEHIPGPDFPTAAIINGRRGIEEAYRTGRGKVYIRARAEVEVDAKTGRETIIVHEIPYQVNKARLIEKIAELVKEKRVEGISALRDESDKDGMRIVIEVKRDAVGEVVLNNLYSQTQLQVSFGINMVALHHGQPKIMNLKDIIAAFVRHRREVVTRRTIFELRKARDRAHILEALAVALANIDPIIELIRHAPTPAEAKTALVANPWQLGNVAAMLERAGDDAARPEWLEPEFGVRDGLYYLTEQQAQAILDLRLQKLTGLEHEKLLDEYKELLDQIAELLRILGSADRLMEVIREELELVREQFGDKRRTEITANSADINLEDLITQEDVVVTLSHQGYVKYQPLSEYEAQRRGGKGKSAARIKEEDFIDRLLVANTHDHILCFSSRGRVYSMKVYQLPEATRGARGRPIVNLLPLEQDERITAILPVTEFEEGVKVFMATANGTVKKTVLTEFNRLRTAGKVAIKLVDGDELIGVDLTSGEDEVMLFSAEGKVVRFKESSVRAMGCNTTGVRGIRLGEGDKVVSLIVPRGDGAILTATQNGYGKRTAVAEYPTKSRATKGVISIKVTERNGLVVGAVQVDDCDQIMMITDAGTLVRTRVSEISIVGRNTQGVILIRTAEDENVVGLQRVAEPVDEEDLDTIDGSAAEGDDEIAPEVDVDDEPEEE
Description: DNA super-coiling activity was assayed using DNA gyrase assay kit (Topogen Inc.) with relaxed pHOT1 E. coli plasmid DNA according to manufacturer's protocol. The standard reaction mixture (20 μl) contained 35 mM Tris-HCl (pH 7.5), 24 mM KCl, 4 mM MgCl2, 2 mM dithiothreitol, 1.8 mM spermidine, 1 mM ATP, 6.5% glycerol, 0.1 mg/ml bovine serum albumin (BSA), 10 μg/ml relaxed pHOT1 plasmid DNA and 1 U of DNA gyrase. The reaction mixture was incubated at 37° C. for 1 h in presence of selected compounds/fluoroquinolone at different concentrations. The reaction was terminated by addition of ⅕ volume of loading dye (4 μl) followed by proteinase K (50 μg/ml) and again incubated at 37° C. for half an hour. 20 μl chloroform/isoamyl alcohol (24:1) was added to each tube and vortexed briefly. Thereafter, the blue aqueous phase was separated out and analyzed by 1% agarose gel electrophoresis. The gel was stained by ethidium bromide for half an hour and destained with water for 15 mins. The gel was then visualized in a trans-illuminator and photographed.

S. aureus MTCC 6908 = test: MIC by micro broth dilution, laboratory S. aureus strain; assay type: cell-based, Staphylococcus aureus; details: for MIC: Staphylococcus aureus, MTCC6908, Table 6, read-out: MIC Susceptible S. aureus (6908) strain
Description: (§5) The plates were incubated at 37° C. for 48 h under anaerobic condition for P. acnes and 37° C. for 24 h for S. aureus The plates were read under Bio-Rad plate reader at 595 nm for optical density to generate the dose-response curves. The MIC of the test compound was recorded by addition of Alamar blue dye.
S. aureus MTCC 6908 were grown in Tryptone Soya Agar (TSA) at 37° C. for 24 hours. […] Plates were incubated at 37° C. for 24 hours. […] (2) Zone of Inhibition (ZOI): S. aureus MTCC 6908 were grown in Tryptone Soya Agar (TSA) at 37° C. for 24 hours. BHA plates are spreaded with 100 μl of 0.5 McFarland standard equal bacterial suspension. Test samples (drugs/formulations) were dissolved in water/solvent based on the solubility. Sterile disc (6 mm) were loaded with 10 μl of test samples (of various concentration of drug), and were placed above the spreaded plates. Plates were incubated at 37 C for 24 h, followed by ZOI measurement. (3) Time Kill Assay: 0.5 McFarland standard equal S. aureus culture was prepared in sterile water. Besifloxacin gels were diluted in Tryptone Soya broth (TSB) to get final concentration of 25 μg/ml. Then 900 μl of S. aureus 0.5 McFarland standard equal culture and 100 μl of diluted Besifloxacin gel was mixed to obtain final Besifloxacin concentration, 2.5 μl g/ml. Total reaction mixture (1 ml) was incubated at 37° C. in a tube rotator. After 2 and 6 h exposure, bacterial suspension was placed on Tryptone soya agar plate and incubated at 37° C. for 24 h.
Inoculated plates were incubated at 37° C. for 24 hours.

P. acnes CCARM 9010 = test: MIC by micro broth dilution (Alamar blue), clindamycin-resistant/nonresponsive P. acnes; assay type: cell-based, Propionibacterium acnes; details: for MIC: Cutibacterium acnes, CCARM9010, read-out: MIC Resistant P. acnes (9010) strain; for Activity / bacterial killing, dose response curve (in words): clindamycin-nonresponsive CCARM 9010
Description: as §5
(§6) P. acnes (MTCC 3297, MTCC 1951& CCARM 9010) are cultured in Brain Heart Infusion (BHI) Broth at 37° C. for 48-72 h under anaerobic condition. The test compounds/formulations are initially diluted with suitable solvent and further diluted with BHI broth to get the required concentrations. Samples (100 μl) of different concentrations (prepared by serial dilution) are added to 96-well plate. To the wells, 100 μl of P. acnes BHI broth culture is added [culture turbidity adjusted against 0.5 McFarland standard (approx 1.5×10^8), and further diluted 100-fold with sterile BHI broth]. In addition Growth Control and Sterility Control are created using 100 μl each of P. acnes BHI broth culture and plain BHI broth, respectively.
(§7) Plates are incubated at 37° C. for 48-72 hrs under anaerobic condition. The plate is read under Bio-Rad plate reader @ 595 nm for optical density to generate the dose-response curves. The MIC of the test compound is recorded by addition of Alamar blue dye.

P. acnes MTCC 1951 = test: MIC by micro broth dilution (Alamar blue), clindamycin-susceptible P. acnes; assay type: cell-based, Propionibacterium acnes; details: for MIC: Cutibacterium acnes, MTCC1951, read-out: MIC Susceptible P. acnes (1951) strain; for Activity / bacterial killing, dose response curve (in words): clindamycin-susceptible MTCC 1951
Description: as §5, §6, §7
BHI broth and BHI agar media were prepared as per the manufacturer's instruction and autoclaved at 121° C. for 15 minutes. […] For MIC determination testing, gels are dissolved in the solvent and further diluted with BHI broth. Then, 96 wells plate are filled with 100 μl of BHI broth containing drug with different concentration to get the final concentrations of 0.06, 0.13, 0.25, 0.5, 1 and 2 μg/ml in different lanes (lane 1 to lane 6). Remaining lanes of the 96 well plate are used as growth control and sterility control. Finally, P. acnes culture suspension (approx 1.5×10^6) is added in all the wells except sterility control wells and plate is incubated at 37° C. for 48-72 h under anaerobic condition. At the end of 72 h, Alamar blue solution (20 μl) is added into the wells and incubated at 37° C. for 2 h. Plate is visualized for bacterial inhibitions and MIC values of the tested samples are determined. […]

| SMILES | Percentage reduction in P. acnes induced IL-6 release (IL-6; 25 μg/ml, THP-1 cells, 100% = P. acnes induced cells) [%] | Expression of Cytokines IL-6 (pg/ml) Mean (IL-6; Cells + P. acnes + 0.4 μg/ml (positive control), THP-1 cells, 24 h, Table 70) [pg/mL] | Expression of Cytokines IL-6 (pg/ml) Mean (IL-6; Cells + P. acnes + Dexamethasone 0.4 μg/ml, THP-1 cells, Table 71) [pg/mL] | Reduction in IL-6 levels (IL-6; Example 61, positive control) [%] | Percentage reduction in P. acnes induced IL-8 release (IL-8; 25 μg/ml, 100% = P. acnes induced cells) [%] | Expression of Cytokines IL-8 (pg/ml) Mean (IL-8; Cells + P. acnes + 0.4 μg/ml (positive control), 24 h, Table 70) [pg/mL] | Expression of Cytokines IL-8 (pg/ml) Mean (IL-8; Cells + P. acnes + Dexamethasone 0.4 μg/ml, Table 71) [pg/mL] | Percentage reduction in P. acnes induced IL-1β release (IL-1β) [%] | Percentage reduction in P. acnes induced IL-1α release (IL-1α) [%] | Inhibition of super-coiling activity of DNA gyrase (in words) (E. coli DNA gyrase) | MIC (S. aureus MTCC 6908) [µg/mL] | MIC (P. acnes CCARM 9010) [µg/mL] | Activity / bacterial killing, dose response curve (in words) (P. acnes CCARM 9010) | Activity / bacterial killing, dose response curve (in words) (P. acnes CCARM 9010; listed as compound 90) | MIC (P. acnes MTCC 1951) [µg/mL] | Activity / bacterial killing, dose response curve (in words) (P. acnes MTCC 1951) | Activity / bacterial killing, dose response curve (in words) (P. acnes MTCC 1951; listed as compound 90) | Activity against S. aureus strain (in words) (S. aureus MTCC 6908) |
| --- | --- | --- | --- | --- | --- | --- | --- | --- | --- | --- | --- | --- | --- | --- | --- | --- | --- | --- |
| C[C@@H]1C[C@H]2[C@@H]3CCC4=CC(=O)C=C[C@]4(C)[C@@]3(F)[C@@H](O)C[C@]2(C)[C@@]1(O)C(=O)CO [Dexamethasone] | 99.54 | 2.15 | 2.15 | ~100 | 58.78 | 1080.8 | 1080.76 | 64.73 | 53.83 |  |  |  |  |  |  |  |  |  |
| Cc1ncc([N+](=O)[O-])n1CC(CCl)OC(=O)CN1CCN(c2cc3c(cc2F)c(=O)c(C(=O)O)c2n3C(C)S2)CC1 (stereo not drawn) [Compound 90, 7-{4-[1-Chloromethyl-2-(2-methyl-5-nitro-imidazol-1-yl)-ethoxycarbonylmethyl]-piperazin-1-yl}-6-fluoro-1-methyl-4-oxo-4H-2-thia-8b-aza-cyclobuta[a]naphthalene-3-carboxylic acid] |  |  |  |  |  |  |  |  |  | able to inhibit the super-coiling activity | 1 (≈ 1.64 µM) | 0.9 (≈ 1.48 µM) | shows activity | promising activity | 1.7 (≈ 2.79 µM) | ineffective | not active |  |
| Cc1ncc([N+](=O)[O-])n1CC(O)CCCCN1CCN(c2cc3c(cc2F)c(=O)c(C(=O)O)c2n3C(C)S2)CC1 (stereo not drawn) [Compound 115, 6-Fluoro-7-{4-[5-hydroxy-6-(2-methyl-5-nitro-imidazol-1-yl)-hexyl]-piperazin-1-yl}-1-methyl-4-oxo-4H-2-thia-8b-aza-cyclobuta[a]naphthalene-3-carboxylic acid] |  |  |  |  |  |  |  |  |  | able to inhibit the super-coiling activity | 1.6 (≈ 2.78 µM) | 0.8 (≈ 1.39 µM) | more than double MIC values |  | 0.4 (≈ 0.696 µM) | more than double MIC values |  |  |
| Cc1oc(=O)oc1CN1CCN(c2cc3c(cc2F)c(=O)c(C(=O)OC(CCl)Cn2c([N+](=O)[O-])cnc2C)c2n3C(C)S2)CC1 (stereo not drawn) [Compound 94, 6-Fluoro-1-methyl-7-[4-(5-methyl-2-oxo-[1,3]dioxol-4-ylmethyl)-piperazin-1-yl]-4-oxo-4H-2-thia-8b-aza-cyclobuta[a]naphthalene-3-carboxylic acid 1-chloromethyl-2-(2-methyl-5-nitro-imidazol-1-yl)-ethyl ester] |  |  |  |  |  |  |  |  |  | able to inhibit the super-coiling activity | 2.8 (≈ 4.22 µM) | 3 (≈ 4.52 µM) | hardly showed any activity |  | 3 (≈ 4.52 µM) | hardly showed any activity |  |  |
| CCCCCCCCCCCC(=O)OC(CN1CCN(c2cc3c(cc2F)c(=O)c(C(=O)O)c2n3C(C)S2)CC1)Cn1c([N+](=O)[O-])cnc1C (stereo not drawn) [Compound 113, 7-{4-[2-Dodecanoyloxy-3-(2-methyl-5-nitro-imidazol-1-yl)-propyl]-piperazin-1-yl}-6-fluoro-1-methyl-4-oxo-4H-2-thia-8b-aza-cyclobuta[a]naphthalene-3-carboxylic acid] |  |  |  |  |  |  |  |  |  | able to inhibit the super-coiling activity | > 8.2 | 8 (≈ 11.2 µM) | hardly showed any activity |  | 8.2 (≈ 11.5 µM) | hardly showed any activity |  | least activities |
